Data reported in publication PMC7377239, “Cardiovascular Effects of Polychlorinated Biphenyls and Their Major Metabolites” (Environmental Health Perspectives, 2020).
Structures can show the parent of a compound that is named as a salt. Where two headings read alike, the source gives them in different places.

Test system: iCell cardiomyocytes (human iPSC-derived cardiomyocytes)
Assay: High-content imaging of cytotoxicity and mitochondrial integrity in iPSC-CMs
Assay type: cell-based
Details: for viability at 0.01 µM / activity at 0.01 µM / viability at 0.1 µM / activity at 0.1 µM / viability at 1 µM / activity at 1 µM / viability at 10 µM / activity at 10 µM / viability at 100 µM / activity at 100 µM / minimal effective concentration: Homo sapiens; for viability at 0.01 µM / activity at 0.01 µM / viability at 0.1 µM / activity at 0.1 µM / viability at 1 µM / activity at 1 µM / viability at 10 µM / activity at 10 µM / viability at 100 µM / activity at 100 µM: 0.00 µM = 100.00; for viability at 0.1 µM / activity at 0.1 µM: 0.10 µM
Procedure, shortened: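 Human iPSC-derived cardiomyocytes were seeded on gelatin-coated 384-well plates at 5,000 cells per well and maintained for 12 d. Test chemicals were added as 10μL of 5× solutions to final concentrations of 0.01 to 100μM. Cells were stained with Hoechst 33342 and MitoTracker™ Orange, fixed in formaldehyde, and imaged by confocal high-content microscopy at 10× magnification.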

[1] = Cardiomyocyte, 1.5 h, read-out: cm.cam.90min
[2] = Cardiomyocyte, 1.5 h, read-out: cm.mii.90min
[3] = Cardiomyocyte, 1.5 h, read-out: cm.mito.90min
[4] = Cardiomyocyte, 1.5 h, read-out: cm.tc.90min
[5] = Cardiomyocyte, 24 h, read-out: cm.cam.24hrs
[6] = Cardiomyocyte, 24 h, read-out: cm.mii.24hrs
[7] = Cardiomyocyte, 24 h, read-out: cm.mito.24hrs
[8] = Cardiomyocyte, 24 h, read-out: cm.tc.24hrs
[9] = iPSC-CM, 1.5 h, iPSC-CM, read-out: cm.cam.90min POD
[10] = iPSC-CM, 1.5 h, iPSC-CM, read-out: cm.mii.90min POD
[11] = iPSC-CM, 1.5 h, iPSC-CM, read-out: cm.mito.90min POD
[12] = iPSC-CM, 1.5 h, iPSC-CM, read-out: cm.tc.90min POD
[13] = iPSC-CM, 24 h, iPSC-CM, read-out: cm.cam.24hrs POD
[14] = iPSC-CM, 24 h, iPSC-CM, read-out: cm.mii.24hrs POD
[15] = iPSC-CM, 24 h, iPSC-CM, read-out: cm.mito.24hrs POD
[16] = iPSC-CM, 24 h, iPSC-CM, read-out: cm.tc.24hrs POD
[17] = Cardiomyocyte, 1.5 h, cardiomyocytes (cm), cam, 90 min, read-out: POD cm.cam.90min
[18] = Cardiomyocyte, 1.5 h, cardiomyocytes (cm), mii, 90 min, read-out: POD cm.mii.90min
[19] = Cardiomyocyte, 1.5 h, cardiomyocytes (cm), mito, 90 min, read-out: POD cm.mito.90min
[20] = Cardiomyocyte, 1.5 h, cardiomyocytes (cm), tc, 90 min, read-out: POD cm.tc.90min
[21] = Cardiomyocyte, 24 h, cardiomyocytes (cm), cam, 24 hrs, read-out: POD cm.cam.24hrs
[22] = Cardiomyocyte, 24 h, cardiomyocytes (cm), mii, 24 hrs, read-out: POD cm.mii.24hrs
[23] = Cardiomyocyte, 24 h, cardiomyocytes (cm), mito, 24 hrs, read-out: POD cm.mito.24hrs
[24] = Cardiomyocyte, 24 h, cardiomyocytes (cm), tc, 24 hrs, read-out: POD cm.tc.24hrs

Compound: Oc1ccc(-c2ccc(Cl)cc2)cc1 [4'-OH PCB3]
- viability at 0.01 µM [1]: 98.1%
- activity at 0.01 µM [2]: 97%
- activity at 0.01 µM [3]: 98.1%
- viability at 0.01 µM [4]: 98.1%
- viability at 0.1 µM [1]: 101%
- activity at 0.1 µM [2]: 100%
- activity at 0.1 µM [3]: 101%
- viability at 0.1 µM [4]: 102%
- viability at 1 µM [1]: 100%
- activity at 1 µM [2]: 98.2%
- activity at 1 µM [3]: 100%
- viability at 1 µM [4]: 100%
- viability at 10 µM [1]: 98%
- activity at 10 µM [2]: 98.5%
- activity at 10 µM [3]: 97.9%
- viability at 10 µM [4]: 97.9%
- viability at 100 µM [1]: 0%
- activity at 100 µM [2]: 0%
- activity at 100 µM [3]: 0%
- viability at 100 µM [4]: 0.0231%
- viability at 0.01 µM [5]: 98.2%
- activity at 0.01 µM [6]: 96.5%
- activity at 0.01 µM [7]: 95.9%
- viability at 0.01 µM [8]: 98.1%
- viability at 0.1 µM [5]: 99.2%
- activity at 0.1 µM [6]: 99.8%
- activity at 0.1 µM [7]: 97.4%
- viability at 0.1 µM [8]: 99%
- viability at 1 µM [5]: 104%
- activity at 1 µM [6]: 106%
- activity at 1 µM [7]: 103%
- viability at 1 µM [8]: 105%
- viability at 10 µM [5]: 102%
- activity at 10 µM [6]: 93.5%
- activity at 10 µM [7]: 103%
- viability at 10 µM [8]: 102%
- viability at 100 µM [5]: 0.07%
- activity at 100 µM [6]: 9.32%
- activity at 100 µM [7]: 0.05%
- viability at 100 µM [8]: 0.07%
- minimal effective concentration [9]: 12.4 µM
- minimal effective concentration [10]: 16 µM
- minimal effective concentration [11]: 11.5 µM
- minimal effective concentration [12]: 11.3 µM
- minimal effective concentration [13]: 32.3 µM
- minimal effective concentration [14]: 15.4 µM
- minimal effective concentration [15]: 37.2 µM
- minimal effective concentration [16]: 38.4 µM

Compound: Oc1ccc(-c2ccc(Cl)cc2)cc1 [4'-OH-PCB 3]
- minimal effective concentration [17]: 12.4 µM
- minimal effective concentration [18]: 16 µM
- minimal effective concentration [19]: 11.5 µM
- minimal effective concentration [20]: 11.3 µM
- minimal effective concentration [21]: 32.3 µM
- minimal effective concentration [22]: 15.4 µM
- minimal effective concentration [23]: 37.2 µM
- minimal effective concentration [24]: 38.4 µM

Compound: COc1ccc(-c2ccc(Cl)cc2)cc1 [4'-OMe PCB3]
- viability at 0.01 µM [1]: 95%
- activity at 0.01 µM [2]: 107%
- activity at 0.01 µM [3]: 94.4%
- viability at 0.01 µM [4]: 94.9%
- viability at 0.1 µM [1]: 96%
- activity at 0.1 µM [2]: 114%
- activity at 0.1 µM [3]: 96%
- viability at 0.1 µM [4]: 96.1%
- viability at 1 µM [1]: 103%
- activity at 1 µM [2]: 103%
- activity at 1 µM [3]: 102%
- viability at 1 µM [4]: 103%
- viability at 10 µM [1]: 102%
- activity at 10 µM [2]: 109%
- activity at 10 µM [3]: 101%
- viability at 10 µM [4]: 101%
- viability at 100 µM [1]: 104%
- activity at 100 µM [2]: 99.8%
- activity at 100 µM [3]: 104%
- viability at 100 µM [4]: 105%
- viability at 0.01 µM [5]: 104%
- activity at 0.01 µM [6]: 87%
- activity at 0.01 µM [7]: 105%
- viability at 0.01 µM [8]: 105%
- viability at 0.1 µM [5]: 102%
- activity at 0.1 µM [6]: 85.8%
- activity at 0.1 µM [7]: 104%
- viability at 0.1 µM [8]: 102%
- viability at 1 µM [5]: 104%
- activity at 1 µM [6]: 98%
- activity at 1 µM [7]: 104%
- viability at 1 µM [8]: 104%
- viability at 10 µM [5]: 104%
- activity at 10 µM [6]: 83.8%
- activity at 10 µM [7]: 104%
- viability at 10 µM [8]: 104%
- viability at 100 µM [5]: 92.3%
- activity at 100 µM [6]: 122%
- activity at 100 µM [7]: 94.2%
- viability at 100 µM [8]: 92.4%
- minimal effective concentration [9]: 100 µM
- minimal effective concentration [10]: 100 µM
- minimal effective concentration [11]: 100 µM
- minimal effective concentration [12]: 100 µM
- minimal effective concentration [13]: 82.9 µM
- minimal effective concentration [14]: 100 µM
- minimal effective concentration [15]: 100 µM
- minimal effective concentration [16]: 100 µM

Compound: COc1ccc(-c2ccc(Cl)cc2)cc1 [4'-OMe-PCB 3, 4′-methoxy-4-chlorobiphenyl]
- minimal effective concentration [17]: 100 µM
- minimal effective concentration [18]: 100 µM
- minimal effective concentration [19]: 100 µM
- minimal effective concentration [20]: 100 µM
- minimal effective concentration [21]: 82.9 µM
- minimal effective concentration [22]: 100 µM
- minimal effective concentration [23]: 100 µM
- minimal effective concentration [24]: 100 µM
- effect on cell viability in iPSC-CMs (iPSC-CMs, 0.01-100 μM, 90 min and 24 h): little effect on cell viability

Compound: O=S(=O)(O)Oc1ccc(-c2ccc(Cl)cc2)cc1 [4'-PCB 3 sulfate]
- minimal effective concentration [17]: 100 µM
- minimal effective concentration [18]: 100 µM
- minimal effective concentration [19]: 100 µM
- minimal effective concentration [20]: 100 µM
- minimal effective concentration [21]: 100 µM
- minimal effective concentration [22]: 53.5 µM
- minimal effective concentration [23]: 100 µM
- minimal effective concentration [24]: 100 µM
